Where a SMILES comes first, the peptide text is derived from it. Where no end group is shown, it is not given here. [ ]: non-standard residue; d: D form. Ahx = NCCCCCC(=O)O
Key:
[1] = Solubility of test peptides (Table 1; PBSA); conditions: for Soluble: Table 1
Procedure: (§4) The solubility and aggregation properties of the test peptides were assessed by visual observation, analytical ultracentrifugation, and/or dynamic light scattering.

[2] = test system: Aβ; conditions: literature, cited from earlier work
[3] = target: T1, Aβ(25-35) (Homo sapiens, UniProt P05067); experiment: ThT fluorescence spectroscopy with Aβ(25-35); type: biochemical; conditions: mixed with Aβ(25-35)
T1 construct: A peptide homologous to the 25-35 residues of Aβ, Aβ(25-35), was purchased from Sigma; purchased Sigma (St. Louis, Mo.)

[4] = target: T2, Aβ(1-39) (Homo sapiens, UniProt P05067); experiment: ThT fluorescence spectroscopy with Aβ(1-39); type: biochemical; conditions: one week incubation at room temperature
T2 construct: A peptide homologous to the first 39 residues of Aβ, Aβ(1-39), was purchased from AnaSpec, Inc; purchased AnaSpec, Inc. (San Jose, Calif.)
T2 sequence (P05067 672-710): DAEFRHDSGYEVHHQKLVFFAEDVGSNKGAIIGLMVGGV
Procedure: A few samples used for cellular toxicity assays were tested for ThT fluorescence after one week aging and prior to dilution into cell culture medium. ThT (Sigma, St. Louis, Mo.) was dissolved at 100 μM in PBSA. Forty μl peptide solution and 40 μl ThT stock solution were mixed with 920 μl PBSA and briefly vortexed. Fluorescence emission spectra were taken using a Model M-3 Alphascan (Photon Technology International, South Brunswick, N.J.) spectrofluorimeter, with excitation at 450 nm. An increase in fluorescence with a maximum at 482 nm is indicative of amyloid (LeVine, H. Protein Sci. 2:404-410, 1993). Fluorescence intensity for diluted ThT in the absence of peptide was determined and subtracted from sample intensities. ThT fluorescence intensity was measured for Aβ-amyloid(1-39) alone or mixed with 18-25 or 15-25-K6 after one week incubation at room temperature. Samples were diluted 25-fold just prior to measurement. […] Because 16-25 was not soluble in PBS, the assay could not be repeated in a like manner for that peptide; however, a parallel experiment was conducted by dissolution of 16-25 or 18-25 into 35% ACN/TFA followed by mixing with Aβ(1-39) and dilution into PBS.

[5] = target: T2, Aβ(1-39); experiment: Electron microscopy of Aβ(1-39) fibrils; type: biochemical; conditions: aged approximately one week
Procedure: Solutions of Aβ(1-39) alone (0.5 mg/ml) or with 1 mg/ml 15-25-K6 were prepared as described above and aged at room temperature for approximately one week. A drop of the peptide solution was placed on a Pioloform coated 300 mesh electron microscope copper grid. After blotting, a drop of 1% ammonium molybdate was placed on the grid while being held with fine forceps. The grid was blotted on filter paper and allowed to dry before observing the specimen in a JEOL (Peabody, Mass.) 100 CX Electron Microscope at 60 kV. To further examine the aggregates, electron micrographs were taken. FIG. 3A and B are electron micrographs of (A) Aβ(1-39) alone and (B) Aβ(1-39) with 15-25-K6. Magnification is 72,500x.

[6] = target: T2, Aβ(1-39); experiment: Circular dichroism spectroscopy, effect of peptide on Aβ(1-39) spectra; type: biochemical; conditions: Aβ(1-39):peptide 1:2 molar ratio
Procedure: (§1) β(1-39), 15-25-K6, or a mixture of β(1-39) and 15-25-K6 (1:2 molar ratio) were dissolved in 0.01 M phosphate buffer, pH 7.2. The final concentration was 0.5 mg/ml for each peptide. The solution was passed through a 0.45 μm Millipore (Bedford, Mass.) filter to remove dust and then degassed. Circular dichroism spectra in the far UV (190-240 nm) were obtained using a modified Cary Model 60 spectropolarimeter (On-line Instrument Systems, Bogart, Calif.) and analyzed for secondary structure as described (Shen, C.-L., et al., Biophys. J. 65:2383-2395, 1993).
(§2) Circular dichroism spectra of Aβ(1-39) and 15-25-K6 in phosphate buffer (0.1 M. pH 7.4) were collected and quantitatively analyzed for secondary structure. Aβ(1-39) was 65% β-sheet and 30% random coil (spectra not shown), in line with previous measurements (Shen, C.-L., et al., supra, 1994). The secondary structure of 15-25-K6 was essentially the same (64% Aβ-sheet, 36% random coil, data not shown).

[7] = Circular dichroism spectroscopy, secondary structure of peptide alone; type: physicochemical; conditions: phosphate buffer (0.1 M, pH 7.4)
Procedure: as §1, §2

[8] = test system: PC-12 cells; experiment: Cellular toxicity (MTT assay): effect on Aβ(25-35) toxicity; type: cell-based; conditions: co-incubation with Aβ(25-35)
Procedure: (§3) Solutions of recognition or hybrid peptides were prepared by direct dissolution of lyophilized peptide into sterile PBS (with antibiotics). Aβ(1-39) was dissolved in 0.1% TFA at 10 mg/ml, then diluted twenty-fold into sterile PBS (with antibiotics) or PBS containing the hybrid or recognition peptides. Solutions were prepared at 2:1 or 1:1 peptide:Aβ molar ratio. The samples were incubated at room temperature for 7 days, then diluted five-fold with medium and incubated for one day. As a control, PBS was diluted 5:1 with medium and added to some wells.
15-25-K6 shares essentially no homology with Aβ(25-35), which also forms fibrillar aggregates and is toxic to cells. Aβ(25-35) decreased MTT reduction to 45% of controls; co-incubation of 15-25-K6 with Aβ(25-35) had no effect on the toxicity of Aβ(25-35).

[9] = Self-aggregation of test peptides alone (sedimentation equilibrium ultracentrifugation, dynamic light scattering, visual observation); type: physicochemical; conditions: peptide alone
Procedure: as §4

[10] = target: T2, Aβ(1-39); experiment: Dynamic light scattering, Aβ(1-39) aggregation kinetics; type: biochemical; conditions: Aβ 0.5 mg/ml, peptide:Aβ molar ratio 2:1
Procedure: Lyophilized Aβ(1-39) was solubilized in 0.1% TFA at 10 mg/ml, then diluted twenty-fold into PBSA or into PBSA containing the test peptide. PBSA was double-filtered through a 0.22 μm filter prior to use. pH was adjusted to 7.4 with 0.5 N NaOH, then the sample was immediately filtered through a 0.45 μm filter directly into a clean light scattering cuvette. In all cases Aβ(1-39) concentration was 0.5 mg/ml and the molar ratio of test peptide to Aβ was 2:1 unless otherwise indicated. Autocorrelation functions at 90° scattering angle were collected as described previously (Shen, et al., 1994, supra). Data were fit using the method of cumulants to derive and apparent hydrodynamic radius.
The effect of the test peptides on aggregation kinetics of Aβ(1-39) was assessed by dynamic light scattering (FIG. 1). FIG. 1 graphs the effect of recognition and hybrid peptides on Aβ aggregation kinetics. Final Aβ concentration was 0.5 mg/ml, Aβ:peptide molar ratio was 1:2 except where indicated. The hydrodynamic radius (measured at a 90° scattering angle) was measured as a function of time.

[11] = target: T2, Aβ(1-39); experiment: Static light scattering, Aβ(1-39) aggregate molecular weight and morphology (Kratky plot); type: biochemical; conditions: peptide:Aβ 2:1 (16-20-K6 1:2)
Procedure: Solutions of Aβ(1-39) alone or with test peptide at a 2:1 peptide:Aβ molar ratio were prepared as described above. Solutions were incubated at room temperature for 24 hours, after which scattered intensity data as a function of angle were collected and analyzed as described elsewhere (Shen, C.-L. and Murphy, Biophys. J., 1995, supra).
The effect of the test peptide on aggregate size and morphology was probed with static light scattering. […] Thus, the average molecular weight of Aβ(1-39) aggregates was not dramatically affected by any of the peptides tested.
A convenient tool for abstracting particle shape information from angular dependence data is the so-called Kratky plot. FIGS. 2A and B are Kratky plots of Aβ-peptide solutions. Aβ(1-39) was co-incubated with recognition (A) or hybrid (B) peptides for 24 hours, after which SLS data were collected, analyzed, and plotted as Kratky plots. In all cases, Aβ(1-39) concentration was 0.5 mg/ml and the peptide:Aβ molar ratio was 2:1, except for 16-20-K6 for which the molar ratio was lowered to 1:2. In FIG. 2, q is the scattering vector, which is related to the scattering angle, R is the Rayleigh ratio, a function of the scattering intensity, c is the concentration, and K is an instrument constant. Referring to FIG. 2A, the rising curves with an intermediate plateau are characteristic of semiflexible linear chains. […]

[12] = test system: PC-12 cells; experiment: Cellular toxicity (MTT assay): protection from Aβ(1-39) toxicity; type: cell-based; conditions: both molar ratios tested (2:1 and 1:1)
Procedure: as §3
Freshly-prepared solutions of Aβ(1-39) were not toxic to the cells, consistent with other reports in the literature (Shearman, et al., supra). None of the test peptides alone were toxic. […] FIG. 4 graphs the effect of recognition and hybrid peptides on Aβ toxicity. Aβ(0.5 mg/ml) was incubated with the recognition peptide at a 1:2 Aβ:peptide molar ratio (A), or with the hybrid peptides at a 1:1 or 1:2 Aβ:peptide molar ratio (B), for one week, following which the solution was diluted five-fold and added to monolayer cultures of PC-12 cells. Cell viability was assessed with the MTT assay; results are reported relative to untreated wells. […] The ability of each peptide to protect cells from Aβ toxicity was assessed by a upper-tailed t-test; *, p<0.01; **, p<0.001.

[13] = target: Aβ (Homo sapiens, UniProt P05067); conditions: literature; cited from earlier work
Aβ (Homo sapiens, UniProt P05067), sequence (P05067 672-711 limits assumed): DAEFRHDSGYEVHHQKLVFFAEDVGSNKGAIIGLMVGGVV

[14] = test system: Aβ toxicity; conditions: literature; cited from earlier work

VFFAEDVG [18-25, VFFAEDVG]
Soluble [1]: yes

FAEDVG [20-25, FAEDVG]
Soluble [1]: yes

CCCCCCCCCCCCCCCC[N+]1(C)CCCCC1.[Br-] [hexadecyl-N-methylpiperidinium bromide]
effect on Aβ aggregation / fibril formation [2]: inhibits Aβ fibril formation

CC(C)C[C@H](NC(=O)[C@@H](N)CCCCN)C(=O)N[C@H](C(=O)N[C@@H](Cc1ccccc1)C(=O)O)C(C)C [16-19, KLVF] (H-KLVF-OH)
Soluble [1]: yes

KLVFFKKKKKK [16-20-K6, KLVFFKKKKKK]
solubility in PBSA [1]: readily soluble
Soluble [1]: yes

GQKLVFFAEDVGGaKKKKKK (GQKLVFFAEDVGG[Ahx]KKKKKK) [15-25-K6]
effect on ThT fluorescence of Aβ(25-35) [3]: neither a positive nor a negative effect
effect on ThT fluorescence intensity of Aβ(1-39) [4]: reduced the ThT fluorescence intensity of Aβ(1-39) somewhat
effect on Aβ(1-39) fibril morphology (electron micrographs) [5]: did not prevent fibril formation but did appear to reduce the average length of fibrils, and increase the extent of fibril entanglement
effect on circular dichroism spectra of Aβ(1-39) [6]: did not significantly alter
random coil content [7]: 36%
β-sheet content [7]: 64%
effect on toxicity of Aβ(25-35) [8]: no effect
aggregation state by sedimentation equilibrium ultracentrifugation [9]: monomeric
effect on Aβ aggregate size / growth rate (hydrodynamic radius vs time) [10]: dramatic increase
increase in molecular weight of Aβ aggregates ([11]; 24 hours after mixing): 2-2.5 fold
effect on Aβ(1-39) aggregate shape / morphology (Kratky plot) ([11]; 24 hours co-incubation): greatest effect on the particle shape
protection against Aβ(1-39) toxicity [12]: intermediate in protective effect

KKLVFFA
interaction with Aβ [13]: interacts with the homologous sequence in Aβ

FAEDVGKKKKKK [20-25-K6, FAEDVGKKKKKK]
solubility in PBSA [1]: readily soluble
Soluble [1]: yes

Nc1c(/N=N/c2ccc(-c3ccc(/N=N/c4cc(S(=O)(=O)O)c5ccccc5c4N)cc3)cc2)cc(S(=O)(=O)O)c2ccccc12 [Congo red]
effect on Aβ aggregation / fibril formation [2]: disrupt Aβ aggregation
effect on Aβ toxicity [14]: reduce Aβ toxicity

OC[C@H]1O[C@@H]2O[C@H]3[C@H](O)[C@@H](O)[C@@H](O[C@H]4[C@H](O)[C@@H](O)[C@@H](O[C@H]5[C@H](O)[C@@H](O)[C@@H](O[C@H]6[C@H](O)[C@@H](O)[C@@H](O[C@H]7[C@H](O)[C@@H](O)[C@@H](O[C@H]8[C@H](O)[C@@H](O)[C@@H](O[C@H]1[C@H](O)[C@H]2O)O[C@@H]8CO)O[C@@H]7CO)O[C@@H]6CO)O[C@@H]5CO)O[C@@H]4CO)O[C@@H]3CO [β-Cyclodextrin]
effect on Aβ toxicity [14]: partially reduces Aβ toxicity

CC(C)C[C@H](NC(=O)[C@@H](N)CCCCN)C(=O)N[C@H](C(=O)N[C@@H](Cc1ccccc1)C(=O)N[C@@H](Cc1ccccc1)C(=O)O)C(C)C [16-20, KLVFF]
Soluble [1]: yes

VLFKF [16-20S, VLFKF]
Soluble [1]: yes

QKLVTTAE [literature octapeptide with substitutions for the two Phe residues at positions 19 and 20]
effect on Aβ fibril formation ([2]; 10-fold molar excess, electron microscopy): inhibited fibril formation

FFAEDVG [19-25, FFAEDVG]
Soluble [1]: yes

Source: patent publication US6022859A, “Inhibitors of β-amyloid toxicity” (Wisconsin Alumni Research Foundation, priority 1997, dated 2000)
